Counter-ions that a name gives are not always drawn.
How the values were obtained:
[1] = target: T1, human factor XIa (Homo sapiens, UniProt P03951); experiment: Measurement of FXIa inhibition (fluorogenic peptide substrate Boc-Glu(OBzl)-Ala-Arg-AMC); assay type: biochemical; conditions: factor XIa from Kordia, 15 min preincubation, 30 min at 22° C., fluorescence
T1 construct: purchased Kordia
Outline: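 Released AMC fluorescence (360/460 nm) read after 30 min at 22 °C. The reaction was started with Boc-Glu(OBzl)-Ala-Arg-AMC (10 μM stock) after a 15 min preincubation of the enzyme (0.45 nM stock) with compound (final 50 μM to 0.00013 μM).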

[2] = tested on: human and animal plasma; experiment: Determination of anticoagulatory activity: activated partial thromboplastin time (aPTT) in plasma; conditions: concentration of test substance which brings about a 1.5-fold extension of the aPTT; plasma species not given
Outline: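 Citrated plasma (1:9, 0.11 M citrate; 4000 g, 15 min) from human or animal blood incubated with test compound and cephalin/kaolin PTT reagent for 3 min at 37° C.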

[3] = target: T2, human plasmin (Homo sapiens, UniProt P00747); experiment: Measurement of plasmin inhibition (fluorogenic peptide substrate MeOSuc-Ala-Phe-Lys-AMC); assay type: biochemical; conditions: plasmin from Kordia, 15 min preincubation, 30 min at 22° C., fluorescence
T2 construct: purchased Kordia
T2 sequence (P00747 581-810 limits assumed): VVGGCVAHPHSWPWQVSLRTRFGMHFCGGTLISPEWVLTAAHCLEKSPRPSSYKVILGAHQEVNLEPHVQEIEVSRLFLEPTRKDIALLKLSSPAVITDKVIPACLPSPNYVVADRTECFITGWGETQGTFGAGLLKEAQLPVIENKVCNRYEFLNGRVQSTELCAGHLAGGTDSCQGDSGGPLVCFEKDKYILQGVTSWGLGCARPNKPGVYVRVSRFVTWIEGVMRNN
T2 sequence (P00747 97-580 partner limits assumed): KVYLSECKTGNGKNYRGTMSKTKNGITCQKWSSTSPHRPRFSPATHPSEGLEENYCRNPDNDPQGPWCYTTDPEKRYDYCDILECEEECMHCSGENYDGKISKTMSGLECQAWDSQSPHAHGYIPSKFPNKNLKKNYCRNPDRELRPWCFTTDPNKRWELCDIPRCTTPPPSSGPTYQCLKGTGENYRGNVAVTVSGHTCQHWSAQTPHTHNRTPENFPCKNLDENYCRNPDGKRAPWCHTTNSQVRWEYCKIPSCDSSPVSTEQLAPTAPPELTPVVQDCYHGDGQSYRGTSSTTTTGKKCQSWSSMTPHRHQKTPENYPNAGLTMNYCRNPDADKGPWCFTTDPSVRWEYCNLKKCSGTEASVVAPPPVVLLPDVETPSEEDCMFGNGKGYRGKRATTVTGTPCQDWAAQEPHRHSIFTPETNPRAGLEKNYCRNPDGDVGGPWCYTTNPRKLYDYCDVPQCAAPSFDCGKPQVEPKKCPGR
Method: The plasmin inhibition of the inventive substances is determined using a biochemical test system which utilizes the reaction of a peptidic plasmin substrate to determine the enzymatic activity of human plasmin. Here, plasmin cleaves from the peptic plasmin substrate the C-terminal aminomethylcoumarin (AMC), the fluorescence of which is measured. The determinations are carried out in microtitre plates.
Test substances are dissolved in dimethyl sulphoxide and serially diluted in dimethyl sulphoxide (3000 μM to 0.0078 μM; resulting final concentrations in the test: 50 μM to 0.00013 μM). In each case 1 μl of the diluted substance solutions are placed into the wells of white microtitre plates from Greiner (384 wells). Subsequently, the following are added successively: 20 μl of assay buffer (50 mmol/Tris buffer pH 7.4; 100 mmol/l sodium chloride; 5 mmol/calcium chloride; 0.1% bovine serum albumin) and 20 μl of plasmin from Kordia (0.3 μg/ml in assay buffer) are then added successively. After 15 min of incubation, the enzyme reaction is started by addition of 20 μl of the plasmin substrate MeOSuc-Ala-Phe-Lys-AMC dissolved in assay buffer (150 μM in assay buffer) from Bachem, the mixture is incubated at room temperature (22° C.) for 30 min and fluorescence is then measured (excitation: 360 nm, emission: 460 nm). The measured emissions of the test batches with test substance are compared to those of control batches without test substance (only dimethyl sulphoxide instead of test substance in dimethyl sulphoxide), and the IC50 values are calculated from the concentration/activity relationships.

T1 sequence (P03951 388-625 limits assumed): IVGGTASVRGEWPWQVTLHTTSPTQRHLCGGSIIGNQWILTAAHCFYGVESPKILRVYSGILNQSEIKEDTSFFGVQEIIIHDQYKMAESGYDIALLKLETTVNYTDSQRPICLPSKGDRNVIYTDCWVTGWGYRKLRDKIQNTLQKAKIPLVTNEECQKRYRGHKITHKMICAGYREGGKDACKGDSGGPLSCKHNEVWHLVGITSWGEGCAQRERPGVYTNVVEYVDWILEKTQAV
T1 sequence (P03951 19-387 partner limits assumed): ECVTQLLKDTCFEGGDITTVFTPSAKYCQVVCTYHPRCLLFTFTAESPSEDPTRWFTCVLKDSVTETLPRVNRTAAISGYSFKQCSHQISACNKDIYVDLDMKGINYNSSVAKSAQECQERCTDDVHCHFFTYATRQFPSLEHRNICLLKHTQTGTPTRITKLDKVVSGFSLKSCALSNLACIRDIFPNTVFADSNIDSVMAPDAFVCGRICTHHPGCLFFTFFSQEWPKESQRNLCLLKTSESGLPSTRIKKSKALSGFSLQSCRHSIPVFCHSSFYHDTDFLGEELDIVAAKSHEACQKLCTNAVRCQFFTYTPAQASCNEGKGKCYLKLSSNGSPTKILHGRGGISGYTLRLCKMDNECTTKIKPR

Cc1cc(C(=O)NC2CC(O)C2)ccc1-c1ccc(C[C@H](NC(=O)[C@H]2CC[C@H](CN)CC2)C(=O)Nc2ccc3cn[nH]c3c2)cc1 (stereo partly drawn) [Example 164, 4′-[(2S)-2-({[trans-4-(Aminomethyl)cyclohexyl]carbonyl}amino)-3-(1H-indazol-6-ylamino)-3-oxopropyl]-N-(3-hydroxycyclobutyl)-2-methylbiphenyl-4-carboxamide hydrochloride]
IC50 [1]: 7.6 nM | aPTT [2]: 0.13 µmol/L | IC50 [3]: 13 nM

Cc1cc(C(=O)NC(C)C)ccc1-c1ccc(C[C@H](NC(=O)C2CCC(CN)CC2)C(=O)Nc2ccc3cn[nH]c3c2)cc1 (single isomer, unassigned; enantiomer 2) [Example 170]
IC50 [1]: 5.6 nM | IC50 [3]: 1.3 nM

Cc1cc(C(=O)NC2CCC2)ccc1-c1ccc(C[C@H](NC(=O)[C@H]2CC[C@H](CN)CC2)C(=O)Nc2ccc(-c3nnn[nH]3)cc2)cc1 [Example 138, 4′-[(2S)-2-({[trans-4-(Aminomethyl)cyclohexyl]carbonyl}amino)-3-oxo-3-{[4-(1H-tetrazol-5-yl)phenyl]amino}propyl]-N-cyclobutyl-2-methylbiphenyl-4-carboxamide hydrochloride]
IC50 [1]: 0.84 nM | aPTT [2]: 0.25 µmol/L | IC50 [3]: 2.3 nM

Cc1cc(C(=O)N2CCC3CNC(=O)C32)ccc1-c1ccc(C[C@H](NC(=O)[C@H]2CC[C@H](CN)CC2)C(=O)Nc2ccc3cn[nH]c3c2)cc1 (stereo partly drawn) [Example 163, trans-4-(Aminomethyl)-N-[(2S)-1-(1H-indazol-6-ylamino)-3-{2′-methyl-4′-[(6-oxohexahydropyrrolo[3,4-b]pyrrol-1(2H)-yl)carbonyl]biphenyl-4-yl}-1-oxopropan-2-yl]cyclohexanecarboxamide hydrochloride]
IC50 [1]: 10 nM | aPTT [2]: 0.07 µmol/L | IC50 [3]: 8.8 nM

Cc1cc(C(=O)NC(C)C)ccc1-c1ccc(C[C@H](NC(=O)[C@H]2CC[C@H](CN)CC2)C(=O)Nc2cc(Cl)c3oc(=O)[nH]c3c2)cc1 [Example 156, 4′-{(2S)-2-({[trans-4-(Aminomethyl)cyclohexyl]carbonyl}amino)-3-[(7-chloro-2-oxo-2,3-dihydro-1,3-benzoxazol-5-yl)amino]-3-oxopropyl}-N-isopropyl-2-methylbiphenyl-4-carboxamide hydrochloride]
IC50 [1]: 7.1 nM | IC50 [3]: 0.58 nM

Cc1cc(C(=O)NC2CCC2)ccc1-c1ccc(C[C@H](NC(=O)[C@H]2CC[C@H](CN)CC2)C(=O)Nc2cc(Cl)c3oc(=O)[nH]c3c2)cc1 [Example 102, 4′-{(2S)-2-({[trans-4-(Aminomethyl)cyclohexyl]carbonyl}amino)-3-[(7-chloro-2-oxo-2,3-dihydro-1,3-benzoxazol-5-yl)amino]-3-oxopropyl}-N-cyclobutyl-2-methylbiphenyl-4-carboxamide hydrochloride]
IC50 [1]: 7.9 nM | IC50 [3]: 0.74 nM

Cc1cc(C(=O)NC(C)C)ccc1-c1ccc(C[C@@H](NC(=O)C2CCC(CN)CC2)C(=O)Nc2ccc3cn[nH]c3c2)cc1 (single isomer, unassigned; enantiomer 1) [Example 169]
IC50 [1]: 2800 nM | IC50 [3]: 270 nM

Cc1cc(C(=O)N2CCCC2)ccc1-c1ccc(C[C@H](NC(=O)[C@H]2CC[C@H](CN)CC2)C(=O)Nc2ccc(-c3nn[nH]n3)cc2)cc1 [Example 20, trans-4-(Aminomethyl)-N-[(2S)-3-[2′-methyl-4′-(pyrrolidin-1-ylcarbonyl)biphenyl-4-yl]-1-oxo-1-{[4-(2H-tetrazol-5-yl)phenyl]amino}propan-2-yl]cyclohexanecarboxamide]
IC50 [1]: 1.8 nM | IC50 [3]: 5.7 nM

CNC(=O)C(F)(F)C(F)(F)c1nnc(-c2ccc(NC(=O)[C@H](Cc3ccc(-c4ccc(C(=O)NC(C)C)cc4C)cc3)NC(=O)[C@H]3CC[C@H](CN)CC3)cc2)[nH]1 [Example 165, 4′-({(2S)-2-({[trans-4-(Aminomethyl)cyclohexyl]carbonyl}amino)-3-oxo-3-[(4-{5-[1,1,2,2-tetrafluoro-3-(methylamino)-3-oxopropyl]-4H-1,2,4-triazol-3-yl}phenyl)amino]propyl}-N-isopropyl-2-methylbiphenyl-4-carboxamide hydrochloride]
IC50 [1]: 1.4 nM | IC50 [3]: 1.9 nM

Cc1cc(C(=O)NC(C)C)ccc1-c1ccc(C[C@H](NC(=O)[C@H]2CC[C@H](CN)CC2)C(=O)Nc2cc(C(=O)O)c3cn[nH]c3c2)cc1 [Example 161, 6-({(2S)-2-({[trans-4-(Aminomethyl)cyclohexyl]carbonyl}amino)-3-[4′-(isopropylcarbamoyl)-2′-methylbiphenyl-4-yl]propanoyl}amino)-1H-indazole-4-carboxylic acid hydrochloride]
IC50 [1]: 6.1 nM | IC50 [3]: 6.7 nM

Cc1cc(C(=O)NC(C)C)ccc1-c1ccc(CC(NC(=O)[C@H]2CC[C@H](CN)CC2)C(=O)Nc2ccc3cn[nH]c3c2)cc1 (mixture of isomers) [Example 21, 4′-[(2R,S)-2-({[trans-4-(Aminomethyl)cyclohexyl]carbonyl}amino)-3-(1H-indazol-6-ylamino)-3-oxopropyl]-N-isopropyl-2-methylbiphenyl-4-carboxamide hydrochloride (enantiomer mixture)]
IC50 [1]: 1.8 nM | IC50 [3]: 1.1 nM

Cc1cc(C(=O)NC2CCC2)ccc1-c1ccc(C[C@H](NC(=O)[C@H]2CC[C@H](CN)CC2)C(=O)Nc2ccc3cc(C(=O)O)[nH]c3c2)cc1 [Example 160, 6-({(2S)-2-({[trans-4-(Aminomethyl)cyclohexyl]carbonyl}amino)-3-[4′-(cyclobutylcarbamoyl)-2′-methylbiphenyl-4-yl]propanoyl}amino)-1H-indole-2-carboxylic acid hydrochloride]
IC50 [1]: 5.2 nM | IC50 [3]: 1.3 nM

Cc1cc(C(=O)NC2CCNCC2)ccc1-c1ccc(C[C@H](NC(=O)[C@H]2CC[C@H](CN)CC2)C(=O)Nc2ccc3cn[nH]c3c2)cc1 [Example 4, 4′-[(2S)-2-({[trans-4-(Aminomethyl)cyclohexyl]carbonyl}amino)-3-(1H-indazol-6-ylamino)-3-oxopropyl]-2-methyl-N-(piperidin-4-yl)biphenyl-4-carboxamide hydrochloride]
IC50 [1]: 11.9 nM | aPTT [2]: 0.21 µmol/L

Cc1cc(C(=O)NC(C)C)ccc1-c1ccc(C[C@H](NC(=O)[C@H]2CC[C@H](CN)CC2)C(=O)Nc2ccc(-c3nn[nH]n3)cc2)cc1 [Example 7, 4′-[(2S)-2-({[trans-4-(Aminomethyl)cyclohexyl]carbonyl}amino)-3-oxo-3-{[4-(2H-tetrazol-5-yl)phenyl]amino}propyl]-N-isopropyl-2-methylbiphenyl-4-carboxamide hydrochloride]
IC50 [1]: 1.7 nM | IC50 [3]: 1.9 nM

Cc1cc(C(=O)NC2CCN(C)CC2)ccc1-c1ccc(C[C@H](NC(=O)[C@H]2CC[C@H](CN)CC2)C(=O)Nc2ccc3[nH]c(C(F)(F)C(F)(F)F)nc3c2)cc1 [Example 82, 4′-[(2S)-2-({[trans-4-(Aminomethyl)cyclohexyl]carbonyl}amino)-3-oxo-3-{[2-(pentafluoroethyl)-1H-benzimidazol-5-yl]amino}propyl]-2-methyl-N-(1-methylpiperidin-4-yl)biphenyl-4-carboxamide hydrochloride]
IC50 [1]: 21 nM | aPTT [2]: 0.39 µmol/L

Cc1cc(C(=O)N[C@@H]2CCNC2)ccc1-c1ccc(C[C@H](NC(=O)[C@H]2CC[C@H](CN)CC2)C(=O)Nc2ccc3[nH]c(C(F)(F)C(F)(F)F)nc3c2)cc1 [Example 80, 4′-[(2S)-2-({[trans-4-(Aminomethyl)cyclohexyl]carbonyl}amino)-3-oxo-3-{[2-(pentafluoroethyl)-1H-benzimidazol-5-yl]amino}propyl]-2-methyl-N-[(3R)-pyrrolidin-3-yl]biphenyl-4-carboxamide hydrochloride]
IC50 [1]: 17 nM | aPTT [2]: 0.41 µmol/L

Cc1cc(C(=O)NCC(=O)N2CCC(N(C)C)CC2)ccc1-c1ccc(C[C@H](NC(=O)[C@H]2CC[C@H](CN)CC2)C(=O)Nc2ccc(-c3nnc(C(F)(F)C(F)(F)C(=O)O)[nH]3)cc2)cc1 [Example 114, 3-{5-[4-({(2S)-2-({[trans-4-(Aminomethyl)cyclohexyl]carbonyl}amino)-3-[4′-{(2-[4-(dimethylamino)piperidin-1-yl]-2-oxoethyl}carbamoyl)-2′-methylbiphenyl-4-yl]propanoyl}-amino)phenyl]-4H-1,2,4-triazol-3-yl}-2,2,3,3-tetrafluoropropanoic acid hydrochloride]
IC50 [1]: 2.6 nM | aPTT [2]: 0.14 µmol/L

Source: patent US20160272617A1, “SUBSTITUTED PHENYLALANINE DERIVATIVES” (BAYER PHARMA AKTIENGESELLSCHAFT, priority 2013, published 2016)
